The source made the active and inactive calls. The calls are words filed in the database; no cut-off is given here.
Assays:
Mus musculus [1] = assay: Hypoglycemic activity in six hrs fasted C57BL6/J mouse assessed as reduction in blood glucose level at 30 nmol/kg, sc measured upto 120 mins post injection by glucometer analysis; type: functional, organism-based
Mus musculus [2] = assay: Hypoglycemic activity in six hrs fasted C57BL6/J mouse assessed as improvement in glucose disposal at 30 nmol/kg, sc pre-administered with compound for 60 mins followed by glucose addition and measured upto 120 mins; type: functional, organism-based; conditions: time <= 180.0 min
[3] = target: Glucagon-like peptide 1 receptor (Homo sapiens) (UniProt P43220); assay: Agonist activity human GLP-1R stably expressed in HEK293-A cells assessed as […] in cAMP accumulation incubated for 30 mins by fluorescence resonance energy transfer analysis; type: functional, cell-based; conditions: filed as agonist
Chain of Glucagon-like peptide 1 receptor (Homo sapiens) (P43220 whole entry): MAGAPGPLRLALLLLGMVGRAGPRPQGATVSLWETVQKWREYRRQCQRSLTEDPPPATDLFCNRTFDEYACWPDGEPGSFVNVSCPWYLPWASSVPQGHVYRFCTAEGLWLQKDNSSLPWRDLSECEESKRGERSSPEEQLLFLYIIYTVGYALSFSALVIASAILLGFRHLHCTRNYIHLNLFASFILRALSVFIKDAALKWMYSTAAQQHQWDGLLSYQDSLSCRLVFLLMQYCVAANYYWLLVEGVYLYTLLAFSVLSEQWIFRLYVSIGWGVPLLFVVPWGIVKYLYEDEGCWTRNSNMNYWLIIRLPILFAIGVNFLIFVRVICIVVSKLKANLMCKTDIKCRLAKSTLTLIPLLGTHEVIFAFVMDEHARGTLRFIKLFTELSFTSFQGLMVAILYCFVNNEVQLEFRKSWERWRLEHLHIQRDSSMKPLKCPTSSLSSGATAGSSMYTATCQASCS

| Compound | Activity (Mus musculus [1]) | Activity (Mus musculus [2]) | Activity [3] |
| --- | --- | --- | --- |
| SEMAGLUTIDE | Active | – | – |
| CC[C@H](C)[C@H](NC(=O)[C@H](Cc1ccccc1)NC(=O)[C@H](CCC(=O)O)NC(=O)[C@H](CC(=O)N[C@@H]1O[C@H](CO)[C@@H](O[C@@H]2O[C@H](CO)[C@@H](O[C@@H]3O[C@H](CO[C@H]4O[C@H](CO)[C@@H](O)[C@H](O)[C@@H]4O[C@@H]4O[C@H](CO)[C@@H](O[C@@H]5O[C@H](CO[C@]6(C(=O)O)C[C@H](O)[C@@H](NC(C)=O)[C@H]([C@H](O)[C@H](O)CO)O6)[C@H](O)[C@H](O)[C@H]5O)[C@H](O)[C@H]4NC(C)=O)[C@@H](O)[C@H](O[C@@H]4O[C@H](CO)[C@H](O)[C@@H](O)[C@H]4O[C@@H]4O[C@H](CO)[C@@H](O[C@@H]5O[C@H](CO[C@]6(C(=O)O)C[C@H](O)[C@@H](NC(C)=O)[C@H]([C@H](O)[C@H](O)CO)O6)[C@H](O)[C@H](O)[C@H]5O)[C@H](O)[C@H]4NC(C)=O)[C@@H]3O)[C@H](O)[C@H]2NC(C)=O)[C@H](O)[C@H]1NC(C)=O)NC(=O)[C@H](C)NC(=O)[C@H](C)NC(=O)[C@H](CCC(N)=O)NC(=O)CNC(=O)[C@H](CCC(=O)O)NC(=O)[C@H](CC(C)C)NC(=O)[C@H](Cc1ccc(O)cc1)NC(=O)[C@H](CO)NC(=O)[C@H](CO)NC(=O)[C@@H](NC(=O)[C@H](CC(=O)O)NC(=O)[C@H](CO)NC(=O)[C@@H](NC(=O)[C@H](Cc1ccccc1)NC(=O)[C@@H](NC(=O)CNC(=O)[C@H](CCC(=O)O)NC(=O)C(C)(C)NC(=O)[C@@H](N)Cc1c[nH]cn1)[C@@H](C)O)[C@@H](C)O)C(C)C)C(=O)N[C@@H](C)C(=O)N[C@@H](Cc1c[nH]c2ccccc12)C(=O)N[C@@H](CC(C)C)C(=O)N[C@H](C(=O)N[C@@H](CCCNC(=N)N)C(=O)NCC(=O)N[C@@H](CCCNC(=N)N)C(=O)NCC(=O)O)C(C)C | Active | Active | Active |

From ChEMBL document CHEMBL5543110, “Engineering of a Biologically Active Glycosylated Glucagon-Like Peptide-1 Analogue” (J Med Chem, 2024)
